For 7 compounds, Activity and MIC results are on record in ChEMBL document CHEMBL3286327, “Cyclohexadepsipeptides of the isaridin class from the marine-derived fungus Beauveria felina EN-135” (J Nat Prod, 2014).

In data set [1] the test system is Artemia salina. The data set is described as follows: Toxicity in Artemia salina at 100 ug/ml. In kind it is organism-based. The conditions noted are these: in vivo.
Data set [2] has as its system Escherichia coli. As to the kind of experiment: Antibacterial activity against Escherichia coli after 24 hrs. In kind it is functional.

Each structure is given as a SMILES string. In brackets after ≈: the same amount, converted by molar mass. Numbered stars: 1 amine (or outer) side, 2 acyl side, 3 side chain; on linkers, the order of the positions; unused ones are H or OH. Square brackets hold non-standard residues; d marks the D form. Peptide text beside a SMILES is read from it. X1 = C[C@H]1CCN([*:1])[C@@H]1C(=O)[*:2]; NMeF = CN[C@@H](Cc1ccccc1)C(=O)O; Hica(2S) = CC(C)C[C@H](O)C(=O)O; NMeL = CN[C@@H](CC(C)C)C(=O)O; NMeV = CN[C@H](C(=O)O)C(C)C; βAla = NCCC(=O)O

Usually MIC stands for the lowest concentration found to suppress growth. As to `CC(C)C[C@@H]1NC(=O)[C@H](C(C)C)N(C)C(=O)[C@H](Cc2ccccc2)NC(=O)[C@@H]2CCCN2C(=O)[C@H](CC(C)C)OC(=O)CCNC1=O` (cyclo(F[NMeV]L[βAla][Hica(2S)]P)), in data set [1], the Activity result was “Non-toxic”. Also, the minimal inhibitory concentration (MIC) in data set [2] is 8 µg/mL (≈ 12.2 µM).

For `CC(C)C[C@@H]1OC(=O)CCNC(=O)[C@H](Cc2ccccc2)N(C)C(=O)[C@H](C(C)C)N(C)C(=O)[C@H](Cc2ccccc2)NC(=O)[C@@H]2CCCN2C1=O` (cyclo(F[NMeV][NMeF][βAla][Hica(2S)]P)), the Activity result in data set [1] is reported as “Non-toxic”.

For the compound `CC(C)C[C@@H]1OC(=O)CCNC(=O)[C@H](Cc2ccccc2)N(C)C(=O)[C@H](C(C)C)N(C)C(=O)[C@H](Cc2ccccc2)NC(=O)[C@@H]2[C@@H](C)CCN2C1=O` (cyclo(F[NMeV][NMeF][βAla][Hica(2S)][X1])), the Activity result in data set [1] is “Non-toxic”.

On to `CC(C)C[C@@H]1OC(=O)CCNC(=O)[C@H](C(C)C)N(C)C(=O)[C@H](C(C)C)N(C)C(=O)[C@H](Cc2ccccc2)NC(=O)[C@@H]2CCCN2C1=O` (cyclo(F[NMeV][NMeV][βAla][Hica(2S)]P)), for which the Activity entry in data set [1] is recorded as “Non-toxic”. For the same compound, in data set [2], the minimal inhibitory concentration (MIC) was found to be 16 µg/mL (≈ 24.4 µM).

In the case of `CC(C)C[C@@H]1NC(=O)[C@H](C(C)C)N(C)C(=O)[C@H](Cc2ccc(O)cc2)NC(=O)[C@@H]2CCCN2C(=O)[C@H](CC(C)C)OC(=O)CCNC1=O` (cyclo(L[βAla][Hica(2S)]PY[NMeV])), in data set [1], the Activity entry is “Non-toxic”. This compound also gave a minimal inhibitory concentration (MIC) in data set [2] of 64 µg/mL (≈ 95.3 µM).

For `CC(C)C[C@@H]1OC(=O)CCNC(=O)[C@H](CC(C)C)N(C)C(=O)[C@H](C(C)C)N(C)C(=O)[C@H](Cc2ccc(O)cc2)NC(=O)[C@@H]2CCCN2C1=O` (cyclo([Hica(2S)]PY[NMeV][NMeL][βAla])), the Activity entry in data set [1] is recorded as “Non-toxic”. The compound further returned an MIC in data set [2] of 64 µg/mL (≈ 93.3 µM).

`O=C(N[C@H](CO)[C@H](O)c1ccc([N+](=O)[O-])cc1)C(Cl)Cl` [CHLORAMPHENICOL]: in data set [2], the MIC was determined as 4 µg/mL (≈ 12.4 µM).
